Laboratory results as given in article PMC7316778 (Nature Communications, 2020).
Several values for one entry are separate records, joined by “and”; a condition that tells them apart may be missing. Equal entries are not always repeated. Where two headings read alike, the source gives them in different places.

Legend:
Assay in all cases: SelectScreen kinase assay
CSNK1D (CK1 delta) = CSNK1D (CK1 delta) (Homo sapiens, UniProt P48730); details: 1 h, 1 μM WEL028, 1 h preincubation
Procedure: (§1) Selectivity profiling assays were performed by the Invitrogen SelectScreen™ Services. […] The concentration of ATP was selected to be equal to the KM, unless indicated otherwise.

KSR2 = target: T1, KSR2 (Homo sapiens, UniProt Q6VAB6); details: for Inhibition at 1 µM (%): KSR2, ZLYTE, ATP Km app
T1 sequence (Q6VAB6 1-950): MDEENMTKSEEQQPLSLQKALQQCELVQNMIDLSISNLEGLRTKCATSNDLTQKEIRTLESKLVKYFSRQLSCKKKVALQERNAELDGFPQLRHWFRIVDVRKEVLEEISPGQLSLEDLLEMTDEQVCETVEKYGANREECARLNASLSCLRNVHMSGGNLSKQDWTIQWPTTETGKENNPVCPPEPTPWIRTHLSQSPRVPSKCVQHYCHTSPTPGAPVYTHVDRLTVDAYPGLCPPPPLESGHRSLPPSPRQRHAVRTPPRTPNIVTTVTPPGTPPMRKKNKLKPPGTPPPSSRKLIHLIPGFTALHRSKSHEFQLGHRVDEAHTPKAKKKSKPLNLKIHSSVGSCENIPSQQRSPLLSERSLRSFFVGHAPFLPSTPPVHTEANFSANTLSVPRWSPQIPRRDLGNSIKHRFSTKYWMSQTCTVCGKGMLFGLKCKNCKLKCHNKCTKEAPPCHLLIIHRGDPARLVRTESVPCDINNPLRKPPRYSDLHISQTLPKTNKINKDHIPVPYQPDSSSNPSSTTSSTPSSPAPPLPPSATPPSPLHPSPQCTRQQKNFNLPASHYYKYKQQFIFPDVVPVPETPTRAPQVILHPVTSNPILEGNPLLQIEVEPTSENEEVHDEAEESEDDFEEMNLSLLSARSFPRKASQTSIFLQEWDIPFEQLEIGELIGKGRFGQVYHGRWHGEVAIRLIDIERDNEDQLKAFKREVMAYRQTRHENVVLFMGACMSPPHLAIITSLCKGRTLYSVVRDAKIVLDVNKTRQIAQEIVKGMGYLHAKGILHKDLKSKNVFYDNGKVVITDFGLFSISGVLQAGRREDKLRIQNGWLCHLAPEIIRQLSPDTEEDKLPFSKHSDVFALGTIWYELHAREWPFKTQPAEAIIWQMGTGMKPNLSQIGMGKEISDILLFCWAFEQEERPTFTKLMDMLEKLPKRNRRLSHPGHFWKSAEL
Procedure: as §1

GSG2 (Haspin) = GSG2 (Haspin) (Homo sapiens, UniProt Q8TF76)
Procedure: as §1

GRK4 = GRK4 (Homo sapiens, UniProt P32298); details: for Inhibition at 1 µM (%): GRK4, ZLYTE, ATP Km app
Procedure: as §1

PRKACG (PRKAC gamma) = PRKACG (PRKAC gamma) (Homo sapiens, UniProt P22612); details: for Inhibition at 1 µM (%): PRKACG (PRKAC gamma), LanthaScreen Binding
Procedure: as §1

PTK2B (FAK2) = PTK2B (FAK2) (Homo sapiens, UniProt Q14289)
Procedure: as §1

FLT1 (VEGFR1) = FLT1 (VEGFR1) (Homo sapiens, UniProt P17948)
Procedure: as §1

LTK (TYK1) = LTK (TYK1) (Homo sapiens, UniProt P29376)
Procedure: as §1

CSNK1E (CK1 epsilon) = CSNK1E (CK1 epsilon) (Homo sapiens, UniProt P49674); details: for Inhibition at 1 µM (%): CSNK1E (CK1 epsilon), ZLYTE, ATP Km app
Procedure: as §1

LIMK2 = LIMK2 (Homo sapiens, UniProt P53671)
Procedure: as §1

SGK2 = SGK2 (Homo sapiens, UniProt Q9HBY8)
Procedure: as §1

FES (FPS) = FES (FPS) (Homo sapiens, UniProt P07332)
Procedure: as §1

CDK13/cyclin K = CDK13/cyclin K (Homo sapiens, UniProt Q14004); format: biochemical
CSNK2A1 (CK2 alpha 1) = CSNK2A1 (CK2 alpha 1) (Homo sapiens, UniProt P68400)
Procedure: as §1

ULK3 = target: T2, ULK3 (Homo sapiens, UniProt Q6PHR2)
T2 sequence (Q6PHR2 1-472): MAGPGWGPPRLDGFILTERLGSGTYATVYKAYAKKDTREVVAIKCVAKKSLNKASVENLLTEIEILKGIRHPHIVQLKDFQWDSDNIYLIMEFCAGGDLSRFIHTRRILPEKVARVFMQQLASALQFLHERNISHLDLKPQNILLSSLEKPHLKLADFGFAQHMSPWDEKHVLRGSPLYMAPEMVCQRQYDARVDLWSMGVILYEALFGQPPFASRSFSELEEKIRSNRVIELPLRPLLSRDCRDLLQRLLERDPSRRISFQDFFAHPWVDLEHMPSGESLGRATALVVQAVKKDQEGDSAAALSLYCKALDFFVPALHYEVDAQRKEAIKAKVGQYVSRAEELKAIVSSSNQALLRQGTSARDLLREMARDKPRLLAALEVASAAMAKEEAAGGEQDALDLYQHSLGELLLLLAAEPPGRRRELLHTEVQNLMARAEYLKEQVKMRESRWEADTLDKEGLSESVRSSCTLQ
Procedure: as §1

RET = RET (Homo sapiens, UniProt P07949)
Procedure: as §1

[1] = 1 h, 1 μM WEL028, 1 h preincubation
[2] = 1 µM, ZLYTE, ATP Km app, listed as WEL028, 1 µM
[3] = read-out: Inhibition at 1 µM (%), 1 µM, ZLYTE, ATP Km app

LIMK2, sequence (P53671 whole entry): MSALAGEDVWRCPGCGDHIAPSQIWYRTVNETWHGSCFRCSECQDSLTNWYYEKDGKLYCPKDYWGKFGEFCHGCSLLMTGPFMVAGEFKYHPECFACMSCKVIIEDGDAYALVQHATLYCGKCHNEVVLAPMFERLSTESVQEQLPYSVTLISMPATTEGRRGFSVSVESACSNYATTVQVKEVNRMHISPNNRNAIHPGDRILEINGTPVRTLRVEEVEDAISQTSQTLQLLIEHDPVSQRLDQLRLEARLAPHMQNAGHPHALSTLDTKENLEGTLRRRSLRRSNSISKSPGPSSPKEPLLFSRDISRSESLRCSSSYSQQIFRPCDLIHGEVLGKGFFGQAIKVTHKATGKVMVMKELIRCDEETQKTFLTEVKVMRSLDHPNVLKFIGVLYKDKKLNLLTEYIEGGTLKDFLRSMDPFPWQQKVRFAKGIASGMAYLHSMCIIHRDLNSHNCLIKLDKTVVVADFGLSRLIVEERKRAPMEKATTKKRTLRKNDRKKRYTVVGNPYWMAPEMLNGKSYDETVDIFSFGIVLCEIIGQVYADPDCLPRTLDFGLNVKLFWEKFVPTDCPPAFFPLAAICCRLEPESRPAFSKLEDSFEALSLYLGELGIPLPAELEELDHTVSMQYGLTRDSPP
CSNK1E (CK1 epsilon), sequence (P49674 whole entry): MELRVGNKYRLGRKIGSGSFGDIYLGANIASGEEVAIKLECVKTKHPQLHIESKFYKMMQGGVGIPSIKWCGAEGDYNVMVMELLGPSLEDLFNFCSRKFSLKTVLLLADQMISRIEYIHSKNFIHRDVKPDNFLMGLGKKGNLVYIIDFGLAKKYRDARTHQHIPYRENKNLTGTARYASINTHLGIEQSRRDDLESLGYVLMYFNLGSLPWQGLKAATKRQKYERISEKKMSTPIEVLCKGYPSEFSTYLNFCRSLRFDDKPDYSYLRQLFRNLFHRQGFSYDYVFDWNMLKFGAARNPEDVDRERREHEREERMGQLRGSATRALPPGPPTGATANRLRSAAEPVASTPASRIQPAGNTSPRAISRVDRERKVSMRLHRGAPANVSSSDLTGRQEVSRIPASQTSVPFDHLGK
LTK (TYK1), sequence (P29376 17-864): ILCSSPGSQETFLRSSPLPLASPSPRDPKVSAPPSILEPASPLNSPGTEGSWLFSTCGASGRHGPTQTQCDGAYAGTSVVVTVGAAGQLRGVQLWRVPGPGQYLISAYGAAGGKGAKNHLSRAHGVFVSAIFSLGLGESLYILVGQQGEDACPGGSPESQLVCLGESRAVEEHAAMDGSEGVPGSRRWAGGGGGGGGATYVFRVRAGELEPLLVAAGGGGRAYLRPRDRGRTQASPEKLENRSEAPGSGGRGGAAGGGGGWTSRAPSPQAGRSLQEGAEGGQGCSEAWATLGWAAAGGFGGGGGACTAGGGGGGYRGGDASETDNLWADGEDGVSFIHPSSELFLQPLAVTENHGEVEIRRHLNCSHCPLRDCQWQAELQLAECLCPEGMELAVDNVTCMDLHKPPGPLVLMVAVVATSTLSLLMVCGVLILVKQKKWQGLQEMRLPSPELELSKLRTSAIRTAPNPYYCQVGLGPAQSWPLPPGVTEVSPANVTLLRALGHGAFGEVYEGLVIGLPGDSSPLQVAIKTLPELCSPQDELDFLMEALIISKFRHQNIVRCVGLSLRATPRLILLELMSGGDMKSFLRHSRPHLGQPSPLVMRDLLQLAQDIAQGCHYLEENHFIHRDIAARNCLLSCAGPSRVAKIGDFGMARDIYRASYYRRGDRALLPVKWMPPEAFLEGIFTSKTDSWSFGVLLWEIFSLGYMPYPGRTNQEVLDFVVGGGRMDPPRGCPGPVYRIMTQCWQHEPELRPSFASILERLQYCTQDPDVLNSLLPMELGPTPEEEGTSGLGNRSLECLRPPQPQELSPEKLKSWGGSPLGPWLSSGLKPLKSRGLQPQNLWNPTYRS
SGK2, sequence (Q9HBY8 whole entry): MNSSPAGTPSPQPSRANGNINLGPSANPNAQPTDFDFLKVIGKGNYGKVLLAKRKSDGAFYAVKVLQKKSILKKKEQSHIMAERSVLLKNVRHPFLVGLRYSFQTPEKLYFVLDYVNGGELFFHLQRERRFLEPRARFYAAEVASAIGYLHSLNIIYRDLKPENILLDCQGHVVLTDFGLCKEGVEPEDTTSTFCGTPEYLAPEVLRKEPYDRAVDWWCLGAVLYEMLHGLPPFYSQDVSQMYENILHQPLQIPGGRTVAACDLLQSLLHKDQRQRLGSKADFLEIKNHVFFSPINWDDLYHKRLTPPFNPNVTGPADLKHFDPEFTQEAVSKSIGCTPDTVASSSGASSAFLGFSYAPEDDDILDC
PRKACG (PRKAC gamma), sequence (P22612 whole entry): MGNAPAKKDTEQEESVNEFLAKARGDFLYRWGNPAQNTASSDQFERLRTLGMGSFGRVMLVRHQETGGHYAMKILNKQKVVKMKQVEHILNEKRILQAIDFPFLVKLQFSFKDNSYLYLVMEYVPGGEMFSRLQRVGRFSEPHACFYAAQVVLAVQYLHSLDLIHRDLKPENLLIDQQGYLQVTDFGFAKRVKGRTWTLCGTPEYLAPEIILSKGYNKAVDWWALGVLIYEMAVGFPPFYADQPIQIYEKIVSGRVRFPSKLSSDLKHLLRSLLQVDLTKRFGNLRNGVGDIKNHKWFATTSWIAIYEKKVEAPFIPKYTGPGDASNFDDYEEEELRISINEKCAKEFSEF
CSNK2A1 (CK2 alpha 1), sequence (P68400 whole entry): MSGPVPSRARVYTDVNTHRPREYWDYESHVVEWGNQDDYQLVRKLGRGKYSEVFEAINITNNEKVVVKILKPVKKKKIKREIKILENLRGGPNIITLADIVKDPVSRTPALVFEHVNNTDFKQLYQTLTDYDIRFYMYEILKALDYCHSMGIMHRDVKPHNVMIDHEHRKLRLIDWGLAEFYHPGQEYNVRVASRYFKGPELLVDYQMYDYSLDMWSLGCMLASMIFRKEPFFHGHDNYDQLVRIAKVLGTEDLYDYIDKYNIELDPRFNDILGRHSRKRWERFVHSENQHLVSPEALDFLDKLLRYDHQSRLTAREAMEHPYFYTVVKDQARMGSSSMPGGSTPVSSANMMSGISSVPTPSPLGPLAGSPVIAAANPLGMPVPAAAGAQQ
GRK4, sequence (P32298 whole entry): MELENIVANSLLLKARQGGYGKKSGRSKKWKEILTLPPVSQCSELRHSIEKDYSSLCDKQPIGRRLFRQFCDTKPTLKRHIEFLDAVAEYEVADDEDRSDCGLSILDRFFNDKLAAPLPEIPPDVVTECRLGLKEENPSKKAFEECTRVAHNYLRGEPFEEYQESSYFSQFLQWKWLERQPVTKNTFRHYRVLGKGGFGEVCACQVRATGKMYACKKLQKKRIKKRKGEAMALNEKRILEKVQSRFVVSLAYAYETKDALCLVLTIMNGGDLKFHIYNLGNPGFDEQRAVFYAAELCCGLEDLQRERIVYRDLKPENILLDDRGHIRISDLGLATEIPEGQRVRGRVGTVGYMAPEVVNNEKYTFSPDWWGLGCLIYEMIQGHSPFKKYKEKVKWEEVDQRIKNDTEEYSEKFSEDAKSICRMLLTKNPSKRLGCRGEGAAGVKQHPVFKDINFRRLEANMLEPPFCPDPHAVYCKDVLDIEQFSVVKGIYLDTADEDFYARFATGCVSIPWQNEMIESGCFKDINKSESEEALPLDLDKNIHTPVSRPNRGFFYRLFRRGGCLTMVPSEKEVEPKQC
PTK2B (FAK2), sequence (Q14289 whole entry): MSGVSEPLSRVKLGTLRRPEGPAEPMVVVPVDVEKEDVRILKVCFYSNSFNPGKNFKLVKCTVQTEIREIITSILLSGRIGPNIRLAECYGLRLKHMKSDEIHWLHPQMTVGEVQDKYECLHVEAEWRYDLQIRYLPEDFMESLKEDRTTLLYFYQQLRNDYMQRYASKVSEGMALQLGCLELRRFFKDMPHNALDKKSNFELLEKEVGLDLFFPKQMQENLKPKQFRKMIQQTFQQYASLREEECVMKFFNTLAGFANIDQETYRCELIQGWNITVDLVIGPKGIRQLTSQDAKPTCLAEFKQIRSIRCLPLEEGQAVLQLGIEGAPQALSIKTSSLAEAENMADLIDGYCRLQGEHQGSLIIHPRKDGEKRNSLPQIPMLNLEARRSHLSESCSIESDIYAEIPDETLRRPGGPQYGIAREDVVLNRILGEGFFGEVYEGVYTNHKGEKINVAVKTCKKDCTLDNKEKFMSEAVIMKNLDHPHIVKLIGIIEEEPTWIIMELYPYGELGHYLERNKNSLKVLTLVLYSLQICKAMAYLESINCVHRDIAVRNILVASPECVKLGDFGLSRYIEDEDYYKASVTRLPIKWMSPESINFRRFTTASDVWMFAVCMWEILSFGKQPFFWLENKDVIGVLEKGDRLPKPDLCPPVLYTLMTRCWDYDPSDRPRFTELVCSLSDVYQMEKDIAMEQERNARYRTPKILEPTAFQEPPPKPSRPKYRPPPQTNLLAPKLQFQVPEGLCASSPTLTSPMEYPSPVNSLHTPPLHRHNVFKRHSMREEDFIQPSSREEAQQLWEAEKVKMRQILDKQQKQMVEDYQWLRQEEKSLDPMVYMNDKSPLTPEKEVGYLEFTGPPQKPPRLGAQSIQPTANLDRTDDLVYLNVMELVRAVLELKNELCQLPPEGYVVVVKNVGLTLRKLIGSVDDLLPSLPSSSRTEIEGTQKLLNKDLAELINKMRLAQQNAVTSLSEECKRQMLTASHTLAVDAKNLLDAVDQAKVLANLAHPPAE
CSNK1D (CK1 delta), sequence (P48730 whole entry): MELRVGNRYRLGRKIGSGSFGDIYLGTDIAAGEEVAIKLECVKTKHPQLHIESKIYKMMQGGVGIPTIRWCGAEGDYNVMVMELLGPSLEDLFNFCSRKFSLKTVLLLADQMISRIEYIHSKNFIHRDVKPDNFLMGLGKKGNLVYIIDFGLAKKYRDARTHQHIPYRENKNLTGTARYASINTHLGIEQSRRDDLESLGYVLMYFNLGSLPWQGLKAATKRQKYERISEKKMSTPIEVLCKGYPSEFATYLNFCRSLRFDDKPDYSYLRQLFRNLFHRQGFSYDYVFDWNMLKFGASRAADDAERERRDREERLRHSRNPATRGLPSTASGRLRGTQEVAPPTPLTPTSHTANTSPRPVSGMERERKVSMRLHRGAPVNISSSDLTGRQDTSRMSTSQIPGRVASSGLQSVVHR

Compound: C#CCOc1ccc(Nc2ncc(Cl)c(Nc3ccccc3NC(=O)C=C)n2)c(OC)c1 [Compound 6]
- inhibition at 1 µM (CSNK1D (CK1 delta)): 18%
- inhibition at 1 µM (KSR2; [1]): 1%
- Inhibition at 1 µM (%) (KSR2): 2%
- Inhibition at 1 µM (%) (KSR2; listed as WEL028, 1 µM): 0%
- inhibition at 1 µM (GSG2 (Haspin); [1]): 6%
- Inhibition at 1 µM (%) (GSG2 (Haspin); GSG2 (Haspin), 1 µM, Adapta, ATP Km app): 20%
- inhibition at 1 µM (GRK4; [1]): -1%
- Inhibition at 1 µM (%) (GRK4): -2%
- Inhibition at 1 µM (%) (GRK4; listed as WEL028, 1 µM): 1%
- inhibition at 1 µM (PRKACG (PRKAC gamma); [1]): 3%
- Inhibition at 1 µM (%) (PRKACG (PRKAC gamma)): 2%
- Inhibition at 1 µM (%) (PRKACG (PRKAC gamma); listed as WEL028, 1 µM): 5%
- Inhibition at 1 µM (%) (PTK2B (FAK2); [2]): 37%
- inhibition at 1 µM (PTK2B (FAK2); [1]): 34%
- inhibition at 1 µM (PTK2B (FAK2); [3]): 32%
- inhibition at 1 µM (FLT1 (VEGFR1); [1]): 36%
- Inhibition at 1 µM (%) (FLT1 (VEGFR1); FLT1 (VEGFR1), 1 µM, ZLYTE, ATP Km app, listed as WEL028, 1 µM): 31%
- inhibition at 1 µM (FLT1 (VEGFR1); read-out: Inhibition at 1 µM (%), FLT1 (VEGFR1), 1 µM, ZLYTE, ATP Km app): 42%
- inhibition at 1 µM (LTK (TYK1); [1]): 43%
- Inhibition at 1 µM (%) (LTK (TYK1); LTK (TYK1), 1 µM, ZLYTE, ATP Km app, listed as WEL028, 1 µM): 37%
- inhibition at 1 µM (LTK (TYK1); read-out: Inhibition at 1 µM (%), LTK (TYK1), 1 µM, ZLYTE, ATP Km app): 48%
- inhibition at 1 µM (CSNK1E (CK1 epsilon); [1]): 9%
- Inhibition at 1 µM (%) (CSNK1E (CK1 epsilon)): 14%
- Inhibition at 1 µM (%) (CSNK1E (CK1 epsilon); listed as WEL028, 1 µM): 4%
- inhibition at 1 µM (LIMK2; [1]): -2%
- Inhibition at 1 µM (%) (LIMK2; LIMK2, 1 µM, LanthaScreen Binding, listed as WEL028, 1 µM): -5% and 1%
- Inhibition at 1 µM (%) (SGK2; [2]): 4% and -1%
- inhibition at 1 µM (SGK2; [1]): 2%
- inhibition at 1 µM (FES (FPS); [1]): 15%
- Inhibition at 1 µM (%) (FES (FPS); FES (FPS), 1 µM, ZLYTE, ATP Km app, listed as WEL028, 1 µM): 17%
- inhibition at 1 µM (FES (FPS); read-out: Inhibition at 1 µM (%), FES (FPS), 1 µM, ZLYTE, ATP Km app): 12%
- Inhibition (%) (CDK13/cyclin K; 1 μM WEL028, 1 h preincubation): -3%
- Inhibition at 1 µM (%) (CDK13/cyclin K; CDK13/cyclin K, 1 µM, LanthaScreen Binding, listed as WEL028, 1 µM): -1% and -5%
- inhibition at 1 µM (CSNK2A1 (CK2 alpha 1); [1]): 4%
- Inhibition at 1 µM (%) (CSNK2A1 (CK2 alpha 1); CSNK2A1 (CK2 alpha 1), 1 µM, ZLYTE, ATP Km app, listed as WEL028, 1 µM): 9% and 0%
- Inhibition (%) (ULK3; 1 μM WEL028, 1 h preincubation): 26%
- Inhibition at 1 µM (%) (ULK3; 1 µM, LanthaScreen Binding, listed as WEL028, 1 µM): 27%
- inhibition at 1 µM (ULK3; read-out: Inhibition at 1 µM (%), 1 µM, LanthaScreen Binding): 25%
- inhibition at 1 µM (RET; [1]): 7%
- inhibition at 1 µM (RET; [3]): 6%
